# Source: US11161852B1 (Halia Therapeutics, Inc., priority 2020, dated 2021)
# Experiments:
# [1] = tested on: IL-1β release from THP-1 cells; experiment: IL-1β Release Assay (PMA-differentiated THP-1 cells, LPS + nigericin); assay type: cell-based; settings: Homo sapiens, 250 ng/mL LPS, 20 μM nigericin
# Description: Approximately 1.5 million THP-1 cells were plated in each well of a 6-well TC plate and incubated with 40 nM PMA in RPMI (10% FBS, 1% Penstrep) for 24 hours. The media was then removed and cells were rested in RPMI (10% FBS, 1% Penstrep) for 24 hours after which time the media was removed and cells were pre-treated for 2 hours with various concentrations of compounds of interest (typically serial 3-fold dilution in RPMI+5% FBS, concentrations ranging from 1 μM to 0.5 nM) in RPMI (5% FBS). The media was again removed and cells were incubated with 250 ng/mL LPS and compounds of interest (concentrations as above) in RMPI (5% FBS) for 2 hours. The media was removed for a last time and cells were incubated with 20 μM nigericin and compounds of interest (concentrations as above) in Opti-MEM for 30 minutes. Cell media was then collected and the amount of cleaved IL-1β was determined using a JESS instrument (Protein Simple) and standard protocols. Cleaved Il-1β antibody was obtained from Cell Signaling (catalogue #83186S) and was used at 1:20 dilution in antibody diluent 2. Protein Simple 1× anti-Rabbit HRP secondary antibody was used along with Protein Simple luminol and peroxide for chemiluminescent detection. Primary antibody incubation time was increased from 30 minutes to 60 minutes.
# [2] = molecular target: full-length recombinant human NEK7 (Homo sapiens (Human), UniProt Q8TDX7); experiment: NEK7 Enzymatic Assay ([33P]-ATP, casein substrate); assay type: biochemical
# full-length recombinant human NEK7, sequence (Q8TDX7 whole entry): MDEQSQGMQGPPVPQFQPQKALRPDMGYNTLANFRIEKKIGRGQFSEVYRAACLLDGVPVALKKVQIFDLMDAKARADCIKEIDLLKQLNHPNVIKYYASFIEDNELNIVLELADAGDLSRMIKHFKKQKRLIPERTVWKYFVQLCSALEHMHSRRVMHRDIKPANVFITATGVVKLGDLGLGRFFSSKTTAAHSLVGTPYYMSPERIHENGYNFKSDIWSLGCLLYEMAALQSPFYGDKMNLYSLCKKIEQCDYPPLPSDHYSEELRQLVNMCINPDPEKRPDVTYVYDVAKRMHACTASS
# Description: Casein substrate (from bovine milk, hydrolyzed and partially dephosphorylated mixture of α, β and a caseins, obtained from Sigma Aldrich, catalogue #C4765, diluted in distilled water to a final concentration of 1 mg/mL) and full-length recombinant human NEK7 (expressed by baculovirus in Sf9 insect cells using a N-terminal GST tag, obtained from SignalChem, catalogue #N09-10G, 0.1 μg/μL) were mixed in assay buffer (20 mM Hepes pH 7.5, 10 mM MgCl2, 1 mM EGTA, 0.02% Brij35, 0.02 mg/ml BSA, 0.1 mM Na3VO4, 2 mM DTT, 1% DMSO). Compounds of interest (serial 3-fold dilution in DMSO from 10 μM to 0.5 nM) or vehicle (1% DMSO) were dispensed into the kinase reaction mixture by Acoustic technology (Echo550; nanoliter range). After incubation at room temperature for 20 minutes, the kinase reaction was initiated by addition of [^33P]-ATP (specific activity […]) and the mixture was incubated at room temperature for 2 hours. The reaction was then stopped by spotting the reaction mixture on strips of phosphocellulose P81 paper. Following washing, the radioactivity of the P81 paper was measured and kinase activity data were expressed as the percent remaining kinase activity in test samples compared to vehicle reactions. IC50 values and curve fits were obtained using Prism (GraphPad Software).
Compound,IC50 [1],IC50 [2]
"CC1(c2cc(NC(=O)Nc3ccc(-c4cn(C5CC5)c5ncnc(N)c45)cc3F)on2)CCC1 [Example 34, 1-(4-(4-amino-7-cyclopropyl-7H-pyrrolo[2,3-d]pyrimidin-5-yl)-2-fluorophenyl)-3-(3-(1-methylcyclobutyl)isoxazol-5-yl)urea]",< 150 nM,< 150 nM
"CC(C)(C)c1cc(NC(=O)NC2CC=C(c3cn(C4CC4)c4ncnc(N)c34)CC2)on1 (centres unmarked) [Example 15, 1-(4-(4-amino-7-cyclopropyl-7H-pyrrolo[2,3-d]pyrimidin-5-yl)cyclohex-3-en-1-yl)-3-(3-(tert-butyl)isoxazol-5-yl)urea]",> 1000 nM,> 1500 nM
"CC(C)(C)c1cc(NC(=O)Nc2ccc(-c3cn(C4CC4)c4ncnc(N)c34)cc2F)on1 [Example 2, 1-(4-(4-amino-7-cyclopropyl-7H-pyrrolo[2,3-d]pyrimidin-5-yl)-2-fluorophenyl)-3-(3-(tert-butyl)isoxazol-5-yl)urea]",< 150 nM,< 150 nM
"CC1(c2cc(NC(=O)Nc3ccc(-c4cn(C5CC5)c5ncnc(N)c45)cc3F)on2)CC1 [Example 17, 1-(4-(4-amino-7-cyclopropyl-7H-pyrrolo[2,3-d]pyrimidin-5-yl)-2-fluorophenyl)-3-(3-(1-methylcyclopropyl)isoxazol-5-yl)urea]",< 150 nM,< 150 nM
"Nc1ncnc2c1c(-c1ccc(NC(=O)Nc3cc(C4(C(F)(F)F)CC4)no3)c(F)c1)cn2C1CC(O)C1 (centres unmarked) [Example 39, 1-(4-(4-amino-7-(3-hydroxycyclobutyl)-7H-pyrrolo[2,3-d]pyrimidin-5-yl)-2-fluorophenyl)-3-(3-(1-(trifluoromethyl)cyclopropyl)isoxazol-5-yl)urea]",< 150 nM,< 150 nM
"Nc1ncnc2c1c(-c1ccc(NC(=O)Nc3cc(C4(C(F)(F)F)CC4)no3)c(F)c1)cn2C1CC1 [Example 5, 1-(4-(4-amino-7-cyclopropyl-7H-pyrrolo[2,3-d]pyrimidin-5-yl)-2-fluorophenyl)-3-(3-(1-(trifluoromethyl)cyclopropyl)isoxazol-5-yl)urea]",< 150 nM,< 150 nM
Nc1ncnc2c1c(-c1ccc(NC(=O)Nc3cc(C4CC4)on3)c(F)c1)cn2C1CC1 [Example 6],,301 to 500 nM
"Nc1ncnc2c1c(-c1ccc(NC(=O)Nc3cc(C4(C(F)(F)F)CC4)no3)c(CO)c1)cn2C1CC1 [Example 49, 1-(4-(4-amino-7-cyclopropyl-7H-pyrrolo[2,3-d]pyrimidin-5-yl)-2-(hydroxymethyl)phenyl)-3-(3-(1-(trifluoromethyl)cyclopropyl)isoxazol-5-yl)urea]",,> 1500 nM
"CN1CCC(n2cc(-c3ccc(NC(=O)Nc4cc(C5(C(F)(F)F)CC5)no4)c(F)c3)c3c(N)ncnc32)C1 (centres unmarked) [Example 56, 1-(4-(4-amino-7-(1-methylpyrrolidin-3-yl)-7H-pyrrolo[2,3-d]pyrimidin-5-yl)-2-fluorophenyl)-3-(3-(1-(trifluoromethyl)cyclopropyl)isoxazol-5-yl)urea]",,301 to 500 nM
"COCCn1cc(-c2ccc(NC(=O)Nc3cc(C4(C(F)(F)F)CC4)no3)c(F)c2)c2c(N)ncnc21 [Example 51, 1-(4-(4-amino-7-(2-methoxyethyl)-7H-pyrrolo[2,3-d]pyrimidin-5-yl)-2-fluorophenyl)-3-(3-(1-(trifluoromethyl)cyclopropyl)isoxazol-5-yl)urea]",,< 150 nM
"Cc1cc(-c2cn(C3CC3)c3ncnc(N)c23)ncc1NC(=O)Nc1cc(C2(C(F)(F)F)CC2)no1 [Example 40, 1-(6-(4-amino-7-cyclopropyl-7H-pyrrolo[2,3-d]pyrimidin-5-yl)-4-methylpyridin-3-yl)-3-(3-(1-(trifluoromethyl)cyclopropyl)isoxazol-5-yl)urea]",,> 1500 nM
"Nc1ncnc2c1c(-c1ccc(NC(=O)Nc3cc(C4(C(F)(F)F)CC4)no3)c(F)c1)cn2C1CCC1 [Example 53, 1-(4-(4-amino-7-cyclobutyl-7H-pyrrolo[2,3-d]pyrimidin-5-yl)-2-fluorophenyl)-3-(3-(1-(trifluoromethyl)cyclopropyl)isoxazol-5-yl)urea]",,301 to 500 nM
"1-(4-(4-amino-7-(2-hydroxy-2-methylpropyl)-7H-pyrrolo[2,3-d]pyrimidin-5-yl)-2-fluorophenyl)-3-(5-(1-(trifluoromethyl)cyclopropyl)isoxazol-3-yl)urea [Example 47]",,< 150 nM
"Nc1ncnc2c1c(-c1ccc(NC(=O)Nc3cc(CO)no3)c(F)c1)cn2C1CC1 [Example 36, 1-(4-(4-amino-7-cyclopropyl-7H-pyrrolo[2,3-d]pyrimidin-5-yl)-2-fluorophenyl)-3-(3-(hydroxymethyl)isoxazol-5-yl)urea]",,501 to 1500 nM
"CC1(c2cc(NC(=O)Nc3ccc(-c4cn(C5CC5)c5ncnc(N)c45)cc3F)on2)COC1 [Example 27, 1-(4-(4-amino-7-cyclopropyl-7H-pyrrolo[2,3-d]pyrimidin-5-yl)-2-fluorophenyl)-3-(3-(3-methyloxetan-3-yl)isoxazol-5-yl)urea]",,< 150 nM
Nc1ncnc2c1c(-c1ccc(NC(=O)Nc3cc(C4(C(F)(F)F)CC4)no3)c(F)c1)cn2-c1ccncc1 [Example 25],,501 to 1500 nM
"Nc1ncnc2c1c(-c1cc(F)c(NC(=O)Nc3cc(C4(C(F)(F)F)CC4)no3)cc1F)cn2C1CC1 [Example 42, 1-(4-(4-amino-7-cyclopropyl-7H-pyrrolo[2,3-d]pyrimidin-5-yl)-2,5-difluorophenyl)-3-(3-(1-(trifluoromethyl)cyclopropyl)isoxazol-5-yl)urea]",,501 to 1500 nM
"CCC(CC)c1cc(NC(=O)Nc2ccc(-c3cn(C4CC4)c4ncnc(N)c34)cc2F)on1 [Example 31, 1-(4-(4-amino-7-cyclopropyl-7H-pyrrolo[2,3-d]pyrimidin-5-yl)-2-fluorophenyl)-3-(3-(pentan-3-yl)isoxazol-5-yl)urea]",,301 to 500 nM
"CC(C)(C)c1nnc(NC(=O)Nc2ccc(-c3cn(C4CC4)c4ncnc(N)c34)cc2F)o1 [Example 23, 1-(4-(4-amino-7-cyclopropyl-7H-pyrrolo[2,3-d]pyrimidin-5-yl)-2-fluorophenyl)-3-(5-(tert-butyl)-1,3,4-oxadiazol-2-yl)urea]",,301 to 500 nM
"Nc1ncnc2c1c(-c1ccc(NC(=O)Nc3cc(C4(C(F)(F)F)CC4)no3)c(F)c1)cn2-c1cccnc1 [Example 24, 1-(4-(4-amino-7-(pyridin-3-yl)-7H-pyrrolo[2,3-d]pyrimidin-5-yl)-2-fluorophenyl)-3-(3-(1-(trifluoromethyl)cyclopropyl)isoxazol-5-yl)urea]",,501 to 1500 nM
"Cc1cc(NC(=O)Nc2ccc(-c3cn(C4CC4)c4ncnc(N)c34)cc2F)on1 [Example 7, 1-(4-(4-amino-7-cyclopropyl-7H-pyrrolo[2,3-d]pyrimidin-5-yl)-2-fluorophenyl)-3-(3-methylisoxazol-5-yl)urea]",,501 to 1500 nM
"CCc1cc(NC(=O)Nc2ccc(-c3cn(C4CC4)c4ncnc(N)c34)cc2F)on1 [Example 33, 1-(4-(4-amino-7-cyclopropyl-7H-pyrrolo[2,3-d]pyrimidin-5-yl)-2-fluorophenyl)-3-(3-ethylisoxazol-5-yl)urea]",,< 150 nM
"CC(C)(C)n1cnc(NC(=O)Nc2ccc(-c3cn(C4CC4)c4ncnc(N)c34)cc2F)n1 [Example 22, 1-(4-(4-amino-7-cyclopropyl-7H-pyrrolo[2,3-d]pyrimidin-5-yl)-2-fluorophenyl)-3-(1-(tert-butyl)-1H-1,2,4-triazol-3-yl)urea]",,> 1500 nM
"Nc1nccc2c1c(-c1ccc(NC(=O)Nc3cc(C4(C(F)(F)F)CC4)no3)c(F)c1)cn2C1CC1 [Example 62, 1-(4-(4-amino-1-cyclopropyl-1H-pyrrolo[3,2-c]pyridin-3-yl)-2-fluorophenyl)-3-(3-(1-(trifluoromethyl)cyclopropyl)isoxazol-5-yl)urea]",,> 1500 nM
"CC(C)(C)c1csc(NC(=O)Nc2ccc(-c3cn(C4CC4)c4ncnc(N)c34)cc2F)n1 [Example 18, 1-(4-(4-amino-7-cyclopropyl-7H-pyrrolo[2,3-d]pyrimidin-5-yl)-2-fluorophenyl)-3-(4-(tert-butyl)thiazol-2-yl)urea]",,> 1500 nM
"Nc1ncnc2c1c(-c1cc(F)c(NC(=O)Nc3cc(C4(C(F)(F)F)CC4)no3)c(F)c1)cn2C1CC1 [Example 41, 1-(4-(4-amino-7-cyclopropyl-7H-pyrrolo[2,3-d]pyrimidin-5-yl)-2,6-difluorophenyl)-3-(3-(1-(trifluoromethyl)cyclopropyl)isoxazol-5-yl)urea]",,> 1500 nM
